Like-named read-outs stand apart in the source and are kept apart here.
Target: T1, Glucocorticoid Receptor (GR), CHO-GRE-Luc #35 cells (Cricetulus griseus, UniProt A0A9J7F8I2)
T1 sequence (A0A9J7F8I2 1-774): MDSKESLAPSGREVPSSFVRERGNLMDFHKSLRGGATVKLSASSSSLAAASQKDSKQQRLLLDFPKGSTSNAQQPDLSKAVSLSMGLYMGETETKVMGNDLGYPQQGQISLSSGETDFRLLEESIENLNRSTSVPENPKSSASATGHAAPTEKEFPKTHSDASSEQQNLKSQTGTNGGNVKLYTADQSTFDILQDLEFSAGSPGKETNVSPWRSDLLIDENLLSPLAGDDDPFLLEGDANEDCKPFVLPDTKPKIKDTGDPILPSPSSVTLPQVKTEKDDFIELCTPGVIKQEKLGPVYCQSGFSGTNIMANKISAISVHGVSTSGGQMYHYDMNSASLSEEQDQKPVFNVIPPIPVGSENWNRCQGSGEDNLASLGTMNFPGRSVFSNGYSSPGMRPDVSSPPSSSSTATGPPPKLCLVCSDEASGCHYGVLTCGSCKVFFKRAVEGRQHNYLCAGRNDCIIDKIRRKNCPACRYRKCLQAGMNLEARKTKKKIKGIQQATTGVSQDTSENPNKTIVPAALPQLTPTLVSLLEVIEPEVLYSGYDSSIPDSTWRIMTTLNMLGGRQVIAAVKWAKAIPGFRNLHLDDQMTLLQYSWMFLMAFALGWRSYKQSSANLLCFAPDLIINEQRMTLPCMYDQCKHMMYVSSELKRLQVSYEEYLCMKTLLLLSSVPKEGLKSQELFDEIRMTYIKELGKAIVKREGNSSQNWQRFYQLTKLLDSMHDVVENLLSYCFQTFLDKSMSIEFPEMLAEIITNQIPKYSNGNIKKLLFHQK
Assay: Glucocorticoid receptor function test using transgenic-recombinant cell (GRE-luciferase)
Assay type: cell-based
Procedure: Glucocorticoid Receptor Function Test Using Transgenic-Recombinant Cell
Transgenic-recombinant cell was prepared by our company (Yokohama, JP). In Hokkaido System Science Co., Ltd., a cis-element wherein two glucocorticoid responsive elements (GRE) present in the […] promoter region of mouse were connected in tandem was produced on order from synthetic DNA. The gene was incorporated into a plasmid vector having a gene encoding luciferase enzyme. The plasmid was incorporated into CHO-K1 cell to give a transfectant. The expression cell (CHO-GRE-Luc #35) produces luciferase instead of the object protein under regulation of a transcription region involved in the expression of the object protein. That is, using the cell, a substance that controls production of the object protein can be screened for by replacing the substance with the luciferase activity. Fetal Bovine Serum (FBS), L-glutamine, penicillin-streptomycin solution, PBS(−), trypsin-EDTA solution, Opti-MEM medium and G418 were obtained from GIBCO (Auckland, N.Z.). A 10 cm dish and DMEM:HAM′S F12 medium were obtained from IWAKI (Chiba, JP). A 96 well white plate was obtained from Corning (Corning, N.Y.). Bright-Glo was obtained from Promega (Madison, US). Dexamethasone was obtained from Sigma Chemicals (St. Louis, Mo.).
CHO-GRE-Luc #35 cells were cultured for several days in a 10 cm dish in a medium (10% FBS/DMEM:HAM'S F12/2.5 mM L-glutamine/50 U/mL penicillin/25 μg/mL streptomycin/500 μg/mL G418). Sub-confluent cells were washed with a suitable amount of PBS(−), 1 ml of Trypsin-EDTA was added and the cells were stood still in a CO2 incubator at 37° C. for 3 min. A 10-fold amount of Opti-MEM medium was added to give a suspension, which was placed in a centrifugal tube and centrifuged (25° C., 1,000 rpm, 5 min). The supernatant was removed, and the cells were suspended in 5 ml of Opti-MEM medium and counted.
Storage solutions (5-20 mM) of the compound were prepared with DMSO. The storage solutions were diluted with DMSO to 1 mM, and further diluted 100-fold with distilled water or Opti-MEM medium to give solutions. The preparations were diluted with 1% DMSO solution to each concentration. As GR agonist, 10 nM dexamethasone was used. 0.2% DMSO was present at the time of the function assay.
The prepared compound solutions (evaluation compound solution or 1% DMSO solution 10 μL+dexamethasone or 1% DMSO solution 10 μL) were added to the plate. After the addition, the place was stood still in a CO2 incubator at 37° C. for about 6 hr. After the reaction, Bright-Glo was added at 20 μL/well, and the mixture was gently shaken and measured by a microplate luminometer (Turner Designs Instrument).
The IC50 value (nM) of the evaluation compound against GR stimulation with dexamethasone was calculated using Prism 3.0 as an analysis software and assuming one-site competition.

[1] = against GR stimulation with 10 nM dexamethasone, luciferase, about 6 hr, read-out: GR (IC50: nM)

Row | Structure (SMILES) | IC50 [1] [nM] | IC50 [nM]
1 | Cc1noc(C)c1-c1cc2c(c3c1CCC3)NC(C)(C)C(=O)C2(C)C [Example 2, 6-(3,5-dimethylisoxazol-4-yl)-2,2,4,4-tetramethyl-2,3,4,7,8,9-hexahydro-1H-cyclopenta[h]quinolin-3-one] | 30 | –
2 | Cc1nnn(C)c1-c1cc2c(c3c1CCC3)NC(C)(C)C(=O)C2(C)C [Example 4, 6-(3,5-dimethyl-3H-[1,2,3]triazol-4-yl)-2,2,4,4-tetramethyl-2,3,4,7,8,9-hexahydro-1H-cyclopenta[h]quinolin-3-one] | 86 | –
3 | CC1(C)Nc2c(cc(-c3ccnc4cc[nH]c34)c3c2CCC3)C(C)(C)C1=O [Example 13, 2,2,4,4-tetramethyl-6-(1H-pyrrolo[3,2-b]pyridin-7-yl)-2,3,4,7,8,9-hexahydro-1H-cyclopenta[h]quinolin-3-one] | 31 | –
4 | CC1(C)Nc2c(cc(-c3cccc4nccn34)c3c2CCC3)C(C)(C)C1=O [Example 14, 6-(imidazo[1,2-a]pyridin-5-yl)-2,2,4,4-tetramethyl-2,3,4,7,8,9-hexahydro-1H-cyclopenta[h]quinolin-3-one] | 21 | –
5 | CC1(C)Nc2c(cc(-c3cccc4nncn34)c3c2CCC3)C(C)(C)C1=O [Example 17, 2,2,4,4-tetramethyl-6-([1,2,4]triazolo[4,3-a]pyridin-5-yl)-2,3,4,7,8,9-hexahydro-1H-cyclopenta[h]quinolin-3-one] | – | 91
6 | CC1(C)Nc2c(cc(-c3cccc4ncccc34)c3c2CCC3)C(C)(C)C1=O [Example 20, 2,2,4,4-tetramethyl-6-(quinolin-5-yl)-2,3,4,7,8,9-hexahydro-1H-cyclopenta[h]quinolin-3-one] | 74 | –
7 | CC1(C)Nc2c(cc(-c3ccnc4ncccc34)c3c2CCC3)C(C)(C)C1=O [Example 21, 2,2,4,4-tetramethyl-6-([1,8]naphthyridin-4-yl)-2,3,4,7,8,9-hexahydro-1H-cyclopenta[h]quinolin-3-one] | 53 | –
8 | C=C1C(C)(C)Nc2c(cc(-c3c(C)ncn3C)c3c2CCC3)C1(C)C [Example 29, 6-(3,5-dimethyl-3H-imidazol-4-yl)-2,2,4,4-tetramethyl-3-methylene-2,3,4,7,8,9-hexahydro-1H-cyclopenta[h]quinoline] | 69 | –
9 | C=CCC1(C)C(=O)C(C)(C)Nc2c1cc(-c1ccc(O)cc1C)c1c2CCC1 (stereo not shown) [Example 50, 4-allyl-6-(4-hydroxy-2-methylphenyl)-2,2,4-trimethyl-2,3,4,7,8,9-hexahydro-1H-cyclopenta[h]quinolin-3-one] | 61 | –
10 | C=CCC1(C)C(=O)C(C)(C)Nc2c1cc(-c1c(C)noc1C)c1c2CCC1 (stereo not shown) [Example 51, 4-allyl-6-(3,5-dimethylisoxazol-4-yl)-2,2,4-trimethyl-2,3,4,7,8,9-hexahydro-1H-cyclopenta[h]quinolin-3-one] | 33 | –
11 | C=CCC1(C)C(=O)C(C)(C)Nc2c1cc(-c1cccc3nccn13)c1c2CCC1 (stereo not shown) [Example 57, 4-allyl-6-(imidazo[1,2-a]pyridin-5-yl)-2,2,4-trimethyl-2,3,4,7,8,9-hexahydro-1H-cyclopenta[h]quinolin-3-one] | 69 | –
12 | CCC1(C)C(=O)C(C)(C)Nc2c1cc(-c1cccc3nccn13)c1c2CCC1 (stereo not shown) [Example 58, 4-ethyl-6-(imidazo[1,2-s]pyridin-5-yl)-2,2,4-trimethyl-2,3,4,7,8,9-hexahydro-1H-cyclopenta[h]quinolin-3-one] | 37 | –
13 | CC#CCC1(C)C(=O)C(C)(C)Nc2c1cc(-c1cccc3nccn13)c1c2CCC1 (stereo not shown) [Example 63, 4-(2-butynyl)-6-(imidazo[1,2-a]pyridin-5-yl)-2,2,4-trimethyl-2,3,4,7,8,9-hexahydro-1H-cyclopenta[h]quinolin-3-one] | 48 | –
14 | Cc1noc(C)c1-c1cc2c(c3c1OCO3)NC(C)(C)C(=O)C2(C)C [Example 69, 4-(3,5-dimethylisoxazol-4-yl)-6,6,8,8-tetramethyl-6,7,8,9-tetrahydro-[1,3]dioxolo[4,5-h]quinolin-7-one] | 77 | –
15 | CC1(C)Nc2c(cc(-c3cccc4nccn34)c3c2OCO3)C(C)(C)C1=O [Example 71, 4-(imidazo[1,2-a]pyridin-5-yl)-6,6,8,8-tetramethyl-6,7,8,9-tetrahydro-[1,3]dioxolo[4,5-h]quinolin-7-one] | 59 | –
16 | CC1(C)Nc2c(cc(-c3cccc4ncccc34)c3c2OCO3)C(C)(C)C1=O [Example 72, 6,6,8,8-tetramethyl-4-(quinolin-5-yl)-6,7,8,9-tetrahydro-[1,3]dioxolo[4,5-h]quinolin-7-one] | 40 | –
17 | C=CCC1(C)C(=O)C(C)(C)Nc2c1cc(-c1cccc3cc[nH]c13)c1c2OCO1 (stereo not shown) [Example 78, 6-allyl-4-(1H-indol-7-yl)-6,8,8-trimethyl-6,7,8,9-tetrahydro-[1,3]dioxolo[4,5-h]quinolin-7-one] | – | 94
18 | CC1(C)Nc2c(cc(-c3cccc4nccn34)c3c2OC(F)(F)O3)C(C)(C)C1=O [Example 82, 2,2-difluoro-4-(imidazo[1,2-a]pyridin-5-yl)-6,6,8,8-tetramethyl-6,7,8,9-tetrahydro-[1,3]dioxolo[4,5-h]quinolin-7-one] | 111 | –
19 | Cc1noc(C)c1-c1cc2c(c3c1OCC3)NC(C)(C)C(=O)C2(C)C [Example 84, 6-(3,5-dimethylisoxazol-4-yl)-2,2,4,4-tetramethyl-1,2,3,4,8,9-hexahydro-furo[2,3-h]quinolin-3-one] | 49 | –
20 | CC1(C)Nc2c(cc(-c3cccc4nccn34)c3c2CCO3)C(C)(C)C1=O [Example 88, 6-(imidazo[1,2-a]pyridin-5-yl)-2,2,4,4-tetramethyl-1,2,3,4,8,9-hexahydro-furo[2,3-h]quinolin-3-one] | 66 | –
21 | CC1(C)Nc2c(cc(-c3ccnc4ncccc34)c3c2CCO3)C(C)(C)C1=O [Example 92, 2,2,4,4-tetramethyl-6-([1,8]naphthyridin-4-yl)-1,2,3,4,8,9-hexahydro-furo[2,3-h]quinolin-3-one] | 73 | –
22 | Cc1onc(CO)c1-c1cc2c(c3ccoc13)NC(C)(C)C(=O)C2(C)C [Example 94, 6-(3-hydroxymethyl-5-methylisoxazol-4-yl)-2,2,4,4-tetramethyl-1,2,3,4-tetrahydro-furo[2,3-h]quinolin-3-one] | 66 | –
23 | CC1(C)Nc2c(cc(-c3cccc4nccn34)c3occc23)C(C)(C)C1=O [Example 98, 6-(imidazo[1,2-a]pyridin-5-yl)-2,2,4,4-tetramethyl-1,2,3,4-tetrahydro-furo[2,3-h]quinolin-3-one] | 31 | –
24 | CC1(C)Nc2c(cc(-c3cncc4nccn34)c3occc23)C(C)(C)C1=O [Example 100, 6-(imidazo[1,2-a]pyrazin-5-yl)-2,2,4,4-tetramethyl-1,2,3,4-tetrahydro-furo[2,3-h]quinolin-3-one] | 47 | –
25 | CC1(C)Nc2c(cc(-c3cccc4ncccc34)c3occc23)C(C)(C)C1=O [Example 101, 2,2,4,4-tetramethyl-6-(quinolin-5-yl)-1,2,3,4-tetrahydro-furo [2,3-h]quinolin-3-one] | 37 | –

From patent US8367695B2, “Condensed tetrahydroquinoline derivative and use thereof for medical purposes” (Mitsubishi Tanabe Pharma Corporation, priority 2007, dated 2013)
